# Read-outs that look alike come from different tables or passages of the source.
# What was measured:
# [1] = Metabolism study of PGCN and GML in simulated gastric fluid (SGF); format: in vitro ADME; settings: SGF pH 1.2, 37 °C, 2 h
# Experimental: (§1) Simulated gastric fluid (SGF, pH 1.2) and simulated intestinal fluid (SIF, pH 6.8) were prepared based on Chinese Pharmacopeia (2010) and have been depicted previously. 100 μg PGCN or GML was added to 4 ml of either SGF or SIF to yield 4 reaction systems, i.e., PGCN/SGF (213.47 nM), PGCN/SIF (213.47 nM), GML/SGF (220.99 nM), GML/SIF (220.99 nM), respectively. Polysaccharides extracted in RS were added to these 4 reaction systems in accordance with the actual chromone-polysaccharide proportion, with each reaction further became three sub-systems, i.e., 0 polysaccharide/chrome, 1/2 polysaccharide/chromone, and pan-polysaccharide/chromone. Meanwhile, these 12 systems were allowed to react at 37 °C. Following 2 h, the reaction was stopped by 100 °C boiling for 10 min. Subsequently, these systems were evaporated to dryness and the residue was reconstituted in 1 ml methanol. After centrifugation at 3,000 rpm for 10 min, the supernatant was collected and used for HPLC analysis.
# [2] = Metabolism study of PGCN and GML in simulated intestinal fluid (SIF); format: in vitro ADME; settings: SIF pH 6.8, 37 °C, 2 h
# Experimental: as §1
# Caco-2 cell monolayers = test: Caco-2 bidirectional transport assay of cimifugin; format: in vitro ADME; settings: for effect on flux/transport of cimifugin across Caco-2 monolayers: pretreatment or co-application with cimifugin, A→B flux, similar for B→A
# Experimental: Caco-2 cells were obtained from the American Type Culture Collection (ATCC). […] For the permeability test, cells were seeded in transwell supports with polycarbonate membrane (0.4 μm, 1.12 cm^2, Corning Costar) at a density of 6 × 10^4 cells/cm^2. The integrity of the monolayers was tested by measuring the transepithelial electrical resistance (TEER) before and after every experiment. Only monolayers with TEER >200 Ω/cm^2 were used. Test compounds in transport buffer were added to the donor compartments of either apical (A → B) or basolateral (B → A) wells of the Insert System and incubated at 37 °C. Samples were collected at 0, 30, 60, 90, 120, and 150 min time points and analyzed for HPLC analysis of content of cimifugin as described above.
# [3] = Transport of chromones across semi-permeable membrane (dialysis bag) with or without RS polysaccharide; format: physicochemical; settings: 6 h; for total chromone: inside plus outside the membrane; for total chromone / Fluid inside the semi-permeable membrane, chromone / Fluid outside the semi-permeable membrane, chromone: pH 7.8, 37 °C; for Fluid inside the semi-permeable membrane, chromone / Fluid outside the semi-permeable membrane, chromone: sum of PGCN and cimifugin
# Experimental: Dialysis bags made by semi-permeable membrane materials were used in this analysis. ~3 cm long dialysis bags were first processed as the following procedures in succession: 1) boiled for 5 min in distilled water; 2) rinsed by 60 °C water for 2 min; 3) rinsed by small intestine buffer for 2 min; 4) rinsed by small intestine buffer for 2 min; 5) immersed in buffer at 4 °C. After 12 h, these processed dialysis bags were tied tightly at one end to form a dialysis bag. 1 ml small intestine buffer (pH 7.8) containing cimifugin, PGCN, cimifugin + polysaccharide, or PGCN + polysaccharide was added into this bag and a glass bead was put in to keep this bag vertical. When the other end was tied (an air bubble was retained), this dialysis bag was suspended in 15 ml small intestine buffer. This system was left to stand for 6 h in 37 °C water bath and chromone content inside and outside of this semi-permeable membrane was measured by HPLC analysis.
# [4] = Pharmacokinetic measurement of chromone (cimifugin in rat plasma after oral chromone extracts); format: in vivo, Sprague-Dawley rats; settings: for Tmax: male, Sprague-Dawley, rat, plasma, po, 4 g crude drug/kg, oral chromone extracts 4 g crude drug/kg for 5 days, plasma HPLC
# Experimental: To explore the influence of RS polysaccharide on the pharmacokinetics of chromones, 2.11 g, 1.05 g RS polysaccharide, and 2.11 g glucuronic acid were added to the three aliquots of chromone components, with one aliquot left as control. Thus, totally four test compounds were obtained, including chromone/pan-polysaccharide (CP), chromone/1/2polysaccharide (CHP), chromone/glucuronic acid (CG), and chromone, which served as control. Forty male Sprague-Dawley rats were used in this experiment. They were randomly divided into 4 groups, each consisting of 10 rats. The rats in these four groups were orally administered with CP, CHP, CG and chromones at the dose of 4 g crude drug (equivalent to 10 ml RS extracts) per kg body weight, respectively for five consecutive days. After the final drug delivery of day 5 (at 0.5, 1, 1.5, 2, 3, 5, 8, 12, 16, and 24 h/day), rats were anesthetized by ether inhalation and rat blood samples were obtained from the orbit vein and centrifuged immediately at 3,000 rpm for 10 min to yield plasma. Each plasma sample (100 μl) was mixed with 20 μl of 70% perchloric acid and vortexed and centrifuged at 3,000 rpm for 10 min. The supernatant were subjected to 0.45 μm microporous membrane and the filtrate was collected for subsequent high performance liquid chromatography (HPLC) analysis. Chromatographic separation and analysis using an L-2000 Elite HPLC system has been previously reported. Briefly, the separation of the analytes were performed on a Kromasil C18 column (200 mm × 4.6 mm i.d., particle size 5 μm), equipped with a Shim-pack security guard column at a column temperature of 25 °C. The binary mobile phase consisted of methanol and water. A flow rate of 1.0 ml/min with a gradient elution program as follows: 40–45% methanol at 0–5 min; 45–60% methanol at 5–10 min; 60–80% methanol at 10–15 min; 80–95% methanol at 15–20 min; 95–40% methanol at 20–30 min. The injection volume was 20 μl and detection wavelength was kept at 254 nm.
# [5] = Transformation of cimifugin in small intestine enzyme solution; format: in vitro ADME, Sprague-Dawley rats; settings: 38 °C
# Experimental: Small intestine segment was taken from ten 12 h-fasting male Sprague-Dawley rats. The intestine tissue was first frozen at −80 °C for 12 h, and then ground and centrifuged at 10,000 rpm for 10 min. The supernatant constituted the enzyme solution used in the experiment. To explore the influence of RS polysaccharide on the metabolism of cimifugin, three groups were designed: control group containing 40 μg cimifugin in 1.2 ml enzyme solution; RS polysaccharide/cimifugin group containing 40 μg cimifugin and 8.7 mg RS polysaccharide in 1.2 ml enzyme solution; glucuronic acid/cimifugin group containing 40 μg cimifugin and 8.7 mg glucuronic acid in 1.2 ml enzyme solution. These groups were put in 38 °C water bath for reaction, while samples were taken at 15 and 30 min. After deproteinization by methanol, these samples were centrifuged at 10,000 rpm for 10 min. Subsequently, the supernatant was collected and analyzed for HPLC analysis as described above.
# [6] = small intestine buffer pH 7.8, 37 °C, mean ± SD, n = 10
# [7] = apical application (A→B), A: cimifugin, B: polysaccharide, C: LY335979, D: troleandomycin, mean ± SD, n = 10
# [8] = basolateral application (B→A), A: cimifugin, B: polysaccharide, C: LY335979, D: troleandomycin, mean ± SD, n = 10
smiles,measurement,setting,value
"COc1c2c(cc3oc(C)cc(=O)c13)OC(C(C)(C)OC1OC(CO)C(O)C(O)C1O)C2 [GML, 4′-O-β-D-glucosyl-5-O-methylvisamminol]",transformation in SGF (in words),[1],a little GML was converted into PGCN
same,"HPLC peak area, GML","[1]; mean ± SD, n = 10",1369608 ± 83550
same,transformation in SIF (in words),[2],underwent no change
same,"HPLC peak area, GML","[2]; mean ± SD, n = 10",1369720 ± 112480
"Cl.Cl.Cl.O[C@@H](COc1cccc2ncccc12)CN1CCN([C@@H]2c3ccccc3[C@@H]3[C@H](c4ccccc42)C3(F)F)CC1 [LY335979, Zosuquidar Trihydrochloride, reference compound]",effect on flux/transport of cimifugin across Caco-2 monolayers,Caco-2 cell monolayers,not affected
"COc1c2c(cc3oc(COC4OC(CO)C(O)C(O)C4O)cc(=O)c13)OC(C(C)(C)O)C2 (centres unmarked) [PGCN, prime-O-glucosylcimifugin]",transformation in SGF (in words),[1],a small amount of PCGN was converted into cimifugin
same,transformation in SIF (in words),[2],an overwhelmingly large amount of PGCN was transformed into cimifugin
same,"HPLC peak area, PGCN","[2]; mean ± SD, n = 10",5159 ± 1238
same,total chromone,[3],105.0 ± 0.1 nmol
same,"Fluid inside the semi-permeable membrane, PGCN",[3]; [6],15.2 ± 0.5 nmol
same,"Fluid outside the semi-permeable membrane, PGCN",[3]; [6],89.8 ± 0.4 nmol
same,"Fluid inside the semi-permeable membrane, chromone",[3],15.2 ± 0.5 nmol
same,"Fluid outside the semi-permeable membrane, chromone",[3],89.8 ± 0.4 nmol
COc1c2c(cc3oc(CO)cc(=O)c13)O[C@H](C(C)(C)O)C2 [cimifugin],Tmax,[4]; read-out: Tmax of cimifugin in rat plasma (first peak of double-peak curve),1.5 h
same,Tmax,[4]; read-out: Tmax of cimifugin in rat plasma (second peak of double-peak curve),8 h
same,detection in plasma of chromone treated rats (HPLC qualitative analysis),"[4]; whole process of the experiment, data not shown",only cimifugin was detected
same,"Basolateral content of cimifugin, 30 min",Caco-2 cell monolayers; [7],15.21 ± 2.34 ng
same,"Basolateral content of cimifugin, 60 min",Caco-2 cell monolayers; [7],30.85 ± 3.64 ng
same,"Basolateral content of cimifugin, 90 min",Caco-2 cell monolayers; [7],143.92 ± 12.32 ng
same,"Basolateral content of cimifugin, 120 min",Caco-2 cell monolayers; [7],236.01 ± 22.86 ng
same,"Basolateral content of cimifugin, 150 min",Caco-2 cell monolayers; [7],201.33 ± 15.32 ng
same,"Apical content of cimifugin, 30 min",Caco-2 cell monolayers; [8],26.87 ± 1.54 ng
same,"Apical content of cimifugin, 60 min",Caco-2 cell monolayers; [8],50.45 ± 2.27 ng
same,"Apical content of cimifugin, 90 min",Caco-2 cell monolayers; [8],234.35 ± 11.36 ng
same,"Apical content of cimifugin, 120 min",Caco-2 cell monolayers; [8],354.24 ± 15.47 ng
same,"Apical content of cimifugin, 150 min",Caco-2 cell monolayers; [8],289.46 ± 15.45 ng
same,stability in small intestine enzyme solutions (in words),[5]; rat small intestine enzyme solution,underwent degradation to a great extent
same,total chromone,[3],161.7 ± 0.5 nmol
same,"Fluid inside the semi-permeable membrane, cimifugin",[3]; [6],18.1 ± 0.6 nmol
same,"Fluid outside the semi-permeable membrane, cimifugin",[3]; [6],143.6 ± 0.1 nmol
same,"Fluid inside the semi-permeable membrane, chromone",[3],18.1 ± 0.6 nmol
same,"Fluid outside the semi-permeable membrane, chromone",[3],143.6 ± 0.1 nmol
"O=C[C@H](O)[C@@H](O)[C@H](O)[C@H](O)C(=O)O [glucuronic acid, Glucuronic acid, reference compound]",effect on absorption of chromone in the form of cimifugin (AUC at 3 h and later),"[4]; co-administered orally with chromone extract, rat plasma",did not affect
same,effect on cimifugin degradation / transformation into PGCN in small intestine enzyme solutions (in words),[5]; added to cimifugin in enzyme solution,did not produce any effect on cimifugin transformation
"CO[C@H]1C[C@H](O[C@H]2[C@H](C)[C@@H](O[C@@H]3O[C@H](C)C[C@H](N(C)C)[C@H]3OC(C)=O)[C@@H](C)C[C@@]3(CO3)C(=O)[C@H](C)[C@@H](OC(C)=O)[C@@H](C)[C@@H](C)OC(=O)[C@@H]2C)O[C@@H](C)[C@@H]1OC(C)=O [troleandomycin, Troleandomycin, reference compound]",effect on flux/transport of cimifugin across Caco-2 monolayers,Caco-2 cell monolayers,significantly enhanced
